Patent US7642221B2, “Substituted thien-3-yl-sulphonylamino(thio)carbonyl-triazoline(ethi)ones” (Bayer Aktiengesellschaft, priority 1999, dated 2010)

Assays:
Alopecurus [1] = assay: Pre-emergence test/greenhouse; format: in vivo; conditions: greenhouse, rated after three weeks
Procedure: (§1) • Solvent: 5 parts by weight of acetone • Emulsifier: 1 part by weight of alkylaryl polyglycol ether
(§2) To produce a suitable preparation of active compound, 1 part by weight of active compound is mixed with the stated amount of solvent, the stated amount of emulsifier is added and the concentrate is diluted with water to the desired concentration.
(§3) Seeds of the test plants are sown in normal soil. After about 24 hours, the soil is sprayed with the preparation of active compound such that the particular amount of active compound desired is applied per unit area. The concentration of the spray liquor is chosen so that the particular amount of active compound desired is applied in 1000 liters of water per hectare.
(§4) After three weeks, the degree of damage to the plants is rated in % damage in comparison to the development of the untreated control.
(§5) The figure denote: • 0%=no effect (like untreated control) • 100%=total destruction

Bromus = assay: Pre-emergence test/greenhouse; format: in vivo; conditions: greenhouse, 60 g of ai/ha, rated after three weeks
Procedure: as §1, §2, §3, §4, §5

Chenopodium = assay: Pre-emergence test/greenhouse; format: in vivo; conditions: greenhouse, 60 g of ai/ha, rated after three weeks
Procedure: as §1, §2, §3, §4, §5

Matricaria [2] = assay: Pre-emergence test/greenhouse; format: in vivo; conditions: greenhouse, 60 g of ai/ha, rated after three weeks
Procedure: as §1, §2, §3, §4, §5

Setaria [3] = assay: Pre-emergence test/greenhouse; format: in vivo; conditions: greenhouse, rated after three weeks
Procedure: as §1, §2, §3, §4, §5

Stellaria [4] = assay: Pre-emergence test/greenhouse; format: in vivo; conditions: greenhouse, 60 g of ai/ha, rated after three weeks
Procedure: as §1, §2, §3, §4, §5

Veronica = assay: Pre-emergence test/greenhouse; format: in vivo; conditions: greenhouse, 60 g of ai/ha, rated after three weeks
Procedure: as §1, §2, §3, §4, §5

Viola = assay: Pre-emergence test/greenhouse; format: in vivo; conditions: greenhouse, 60 g of ai/ha, rated after three weeks
Procedure: as §1, §2, §3, §4, §5

weeds [5] = assay: Pre-emergence test, activity against weeds; format: in vivo
Procedure: as §1, §2, §3, §4, §5

Abutilon [6] = assay: Post-emergence test/greenhouse; format: in vivo; conditions: greenhouse, rated after three weeks
Procedure: as §1
(§6) To produce a suitable preparation of active compound, one part by weight of active compound is mixed with the stated amount of solvent, the stated amount of emulsifier is added and the concentrate is diluted with water to the desired concentration.
(§7) Test plants which have a height of 5-15 cm are sprayed with the preparation of active compound such that the particular amounts of active compound desired are applied per unit area. The concentration of the spray liquor is chosen so that the particular amounts of active compound desired are applied in 1000 l of water/ha.
as §4
(§8) The figures denote: • 0%=no effect (like untreated control) • 100%=total destruction

Alopecurus [7] = assay: Post-emergence test/greenhouse; format: in vivo; conditions: greenhouse, rated after three weeks
Procedure: as §1, §6, §7, §4, §8

Amaranthus [8] = assay: Post-emergence test/greenhouse; format: in vivo; conditions: greenhouse, rated after three weeks
Procedure: as §1, §6, §7, §4, §8

Avenafatua = assay: Post-emergence test/greenhouse; format: in vivo; conditions: greenhouse, 250 g of ai/ha, rated after three weeks
Procedure: as §1, §6, §7, §4, §8

Setaria [9] = assay: Post-emergence test/greenhouse; format: in vivo; conditions: greenhouse, 250 g of ai/ha, rated after three weeks
Procedure: as §1, §6, §7, §4, §8

Sinapis [10] = assay: Post-emergence test/greenhouse; format: in vivo; conditions: greenhouse, 250 g of ai/ha, rated after three weeks
Procedure: as §1, §6, §7, §4, §8

Xanthium [11] = assay: Post-emergence test/greenhouse; format: in vivo; conditions: greenhouse, 250 g of ai/ha, rated after three weeks
Procedure: as §1, §6, §7, §4, §8

weeds [12] = assay: Post-emergence test, activity against weeds; format: in vivo
Procedure: as §1, §6, §7, §4, §8

Abutilon [13] = assay: Pre-emergence test/greenhouse; format: in vivo; conditions: greenhouse, rated after three weeks
Procedure: as §1, §2, §3, §4, §5

Amaranthus [14] = assay: Pre-emergence test/greenhouse; format: in vivo; conditions: greenhouse, rated after three weeks
Procedure: as §1, §2, §3, §4, §5

Cyperus = assay: Pre-emergence test/greenhouse; format: in vivo; conditions: greenhouse, rated after three weeks
Procedure: as §1, §2, §3, §4, §5

Galium = assay: Pre-emergence test/greenhouse; format: in vivo; conditions: greenhouse, 250 g of ai/ha, rated after three weeks
Procedure: as §1, §2, §3, §4, §5

Sinapis [15] = assay: Pre-emergence test/greenhouse; format: in vivo; conditions: greenhouse, 250 g of ai/ha, rated after three weeks
Procedure: as §1, §2, §3, §4, §5

Xanthium [16] = assay: Pre-emergence test/greenhouse; format: in vivo; conditions: greenhouse, 250 g of ai/ha, rated after three weeks
Procedure: as §1, §2, §3, §4, §5

Barley = assay: Pre-emergence test/greenhouse; format: in vivo; conditions: greenhouse, 60 g of ai/ha, rated after three weeks
Procedure: as §1, §2, §3, §4, §5

Solanum [17] = assay: Pre-emergence test/greenhouse; format: in vivo; conditions: greenhouse, 60 g of ai/ha, rated after three weeks
Procedure: as §1, §2, §3, §4, §5

Wheat [18] = assay: Pre-emergence test/greenhouse; format: in vivo; conditions: greenhouse, 60 g of ai/ha, rated after three weeks
Procedure: as §1, §2, §3, §4, §5

Echinochloa = assay: Post-emergence test/greenhouse; format: in vivo; conditions: greenhouse, 15 g of ai/ha, rated after three weeks
Procedure: as §1, §6, §7, §4, §8

Matricaria [19] = assay: Post-emergence test/greenhouse; format: in vivo; conditions: greenhouse, 15 g of ai/ha, rated after three weeks
Procedure: as §1, §6, §7, §4, §8

Solanum [20] = assay: Post-emergence test/greenhouse; format: in vivo; conditions: greenhouse, 15 g of ai/ha, rated after three weeks
Procedure: as §1, §6, §7, §4, §8

Stellaria [21] = assay: Post-emergence test/greenhouse; format: in vivo; conditions: greenhouse, 15 g of ai/ha, rated after three weeks
Procedure: as §1, §6, §7, §4, §8

Wheat [22] = assay: Post-emergence test/greenhouse; format: in vivo; conditions: greenhouse, 15 g of ai/ha, rated after three weeks
Procedure: as §1, §6, §7, §4, §8

Maize = assay: Pre-emergence test/greenhouse; format: in vivo; conditions: greenhouse, 60 g of ai/ha, rated after three weeks
Procedure: as §1, §2, §3, §4, §5

Row | SMILES | degree of damage to the plants, Alopecurus (Alopecurus [1]; 60 g of ai/ha) [%] | degree of damage to the plants, Bromus (Bromus) [%] | degree of damage to the plants, Setaria (Setaria [3]; 60 g of ai/ha) [%] | degree of damage to the plants, Stellaria (Stellaria [4]) [%] | degree of damage to the plants, Veronica (Veronica) [%] | degree of damage to the plants, Viola (Viola) [%] | activity against weeds (weeds [5]) | degree of damage to the plants, Abutilon (Abutilon [6]; 250 g of ai/ha) [%] | degree of damage to the plants, Alopecurus (Alopecurus [7]; 250 g of ai/ha) [%] | degree of damage to the plants, Amaranthus (Amaranthus [8]; 250 g of ai/ha) [%] | degree of damage to the plants, Avenafatua (Avenafatua) [%] | degree of damage to the plants, Setaria (Setaria [9]) [%] | degree of damage to the plants, Sinapis (Sinapis [10]) [%] | degree of damage to the plants, Xanthium (Xanthium [11]) [%] | activity against weeds (weeds [12]) | also measured
1 | CCOc1nn(C(=O)NS(=O)(=O)c2c(C(=O)OC)csc2C)c(=O)n1C [Example 1, methyl 4-[[[(3-ethoxy-4,5-dihydro-4-methyl-5-oxo-1H-1,2,4-triazol-1-yl)-carbonyl]-amino]-sulphonyl]-5-methyl-thiophene-3-carboxylate] | 90 | 90 | 90 | 95 | 100 | 100 | very strong activity | 100 | 100 | 100 | 100 | 100 | 100 | 100 | very strong activity | degree of damage to the plants, Chenopodium (Chenopodium): 100%; degree of damage to the plants, Matricaria (Matricaria [2]): 95%; melting point: 163 °C
2 | CCOc1nn(C(=O)NS(=O)(=O)c2c(C(=O)OC)csc2C)c(=O)n1C1CC1 [Example 6] |  |  |  |  |  |  | very strong activity | 100 | 100 | 100 | 100 | 100 | 100 | 100 | very strong activity | degree of damage to the plants, Abutilon (Abutilon [13]; 250 g of ai/ha): 100%; degree of damage to the plants, Alopecurus (Alopecurus [1]; 250 g of ai/ha): 95%; degree of damage to the plants, Amaranthus (Amaranthus [14]; 250 g of ai/ha): 95%; degree of damage to the plants, Cyperus (Cyperus; 250 g of ai/ha): 100%; degree of damage to the plants, Galium (Galium): 90%; degree of damage to the plants, Setaria (Setaria [3]; 250 g of ai/ha): 100%; degree of damage to the plants, Sinapis (Sinapis [15]): 95%; degree of damage to the plants, Xanthium (Xanthium [16]): 95%
3 | CCCOc1nn(C(=O)NS(=O)(=O)c2c(C(=O)OC)csc2C)c(=O)n1C [Example 3] | 80 |  |  | 95 |  |  | very strong activity |  |  |  |  |  |  |  | very strong activity | degree of damage to the plants, Amaranthus (Amaranthus [14]; 60 g of ai/ha): 95%; degree of damage to the plants, Barley (Barley): 0%; degree of damage to the plants, Solanum (Solanum [17]): 90%; degree of damage to the plants, Wheat (Wheat [18]): 0%; degree of damage to the plants, Abutilon (Abutilon [6]; 15 g of ai/ha): 95%; degree of damage to the plants, Alopecurus (Alopecurus [7]; 15 g of ai/ha): 70%; degree of damage to the plants, Amaranthus (Amaranthus [8]; 15 g of ai/ha): 95%; degree of damage to the plants, Echinochloa (Echinochloa): 60%; degree of damage to the plants, Matricaria (Matricaria [19]): 90%; degree of damage to the plants, Solanum (Solanum [20]): 95%; degree of damage to the plants, Stellaria (Stellaria [21]): 100%; degree of damage to the plants, Wheat (Wheat [22]): 0%
4 | COC(=O)c1csc(C)c1S(=O)(=O)NC(=O)n1nc(SC)n(C)c1=O [Example 12] |  | 100 | 100 | 100 | 100 | 100 | very strong activity | 100 | 95 | 100 | 100 | 100 | 100 | 100 | very strong activity | degree of damage to the plants, Abutilon (Abutilon [13]; 60 g of ai/ha): 100%; degree of damage to the plants, Cyperus (Cyperus; 60 g of ai/ha): 100%; degree of damage to the plants, Maize (Maize): 10%
